Experimental data as given in PubChem BioAssay (NCI).
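Exposure lasted 48 hours, with cells grown in 96-well plates and compounds tested at five concentrations. TGI marks complete inhibition of growth.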

Key:
Experiment in all cases: NCI-60 cell line screen, 48 h
[1] = tested on: KM20L2 colon
[2] = tested on: SNB-19 CNS
[3] = tested on: MOLT-4 leukemia
[4] = tested on: M14 melanoma
[5] = tested on: IGROV1 ovarian
[6] = tested on: CAKI-1 renal
[7] = tested on: SW-620 colon
[8] = tested on: CCRF-CEM leukemia
[9] = tested on: HL-60(TB) leukemia
[10] = tested on: UO-31 renal
[11] = tested on: ACHN renal
[12] = tested on: HCT-15 colon
[13] = tested on: HOP-92 NSCLC
[14] = tested on: HCC-2998 colon
[15] = tested on: M19-MEL melanoma
[16] = tested on: RPMI-8226 leukemia
[17] = tested on: TK-10 renal
[18] = tested on: SK-OV-3 ovarian
[19] = tested on: K-562 leukemia
[20] = tested on: SK-MEL-5 melanoma
[21] = tested on: A498 renal
[22] = tested on: DLD-1 colon
[23] = tested on: DMS 273 small cell lung
[24] = tested on: 786-0 renal
[25] = tested on: KM12 colon
[26] = tested on: A549 NSCLC
[27] = tested on: SF-268 CNS
[28] = tested on: LXFL 529 NSCLC
[29] = tested on: NCI-H23 lung
[30] = tested on: COLO 205 colon
[31] = tested on: OVCAR-8 ovarian
[32] = tested on: SK-MEL-28 melanoma
[33] = tested on: RXF 393 renal
[34] = tested on: NCI-H522 lung
[35] = tested on: LOX IMVI melanoma
[36] = tested on: OVCAR-4 ovarian
[37] = tested on: SF-539 CNS
[38] = tested on: SNB-75 CNS
[39] = tested on: SN12C renal
[40] = tested on: HOP-18 NSCLC
[41] = tested on: OVCAR-5 ovarian
[42] = tested on: NCI-H460 lung
[43] = tested on: XF 498 CNS
[44] = tested on: U251 CNS
[45] = tested on: SF-295 CNS
[46] = tested on: UACC-257 melanoma
[47] = tested on: SK-MEL-2 melanoma
[48] = tested on: MALME-3M melanoma
[49] = tested on: OVCAR-3 ovarian
[50] = tested on: EKVX NSCLC
[51] = tested on: HT29 colon
[52] = tested on: UACC-62 melanoma
[53] = tested on: NCI-H226 lung

Measured: TGI

Cc1ccccc1N(CC(=O)O)S(=O)(=O)c1ccccc1
> 100 µM: all assays above

O=C(O)CCCNS(=O)(=O)c1ccccc1
> 100 µM: all assays above
